Measurements published in patent publication US20220259585A1, “METHODS OF MAKING AND UTILIZING AMBER-OBLIGATED PHAGE DISPLAY LIBRARIES” (The Texas A&M University System, priority 2019, published 2022).
Numbered stars: 1 amine (or outer) side, 2 acyl side, 3 side chain; on linkers, the order of the positions; unused ones are H or OH. Square brackets hold non-standard residues; d marks the D form. Peptide text beside a SMILES is read from it. X1 = CCCC(=S)NCCCC[C@H](N[*:1])C(=O)[*:2]; Abu = CC[C@H](N)C(=O)O

Key:
MCF-7 cells = test: Western blot of α-tubulin K40 acetylation in MCF-7 cells (SIRT2 inhibition in cells); type: cell-based, human; details: 24 hours; for increase in acetylation level compared to S2P04 in vivo (in cells): cell line not given, cell cultures 50 μM; for α-tubulin acetylation (lysine 40): MCF-7 cells, 50 μM, versus vehicle control (0.25% DMF)
Description: (§1) Finally, Applicant tested the ability of S2P04, a selected peptide with intermediate potency, to inhibit SIRT2 in human embryonic kidney (HEK 293T) and breast cancer cells (MCF-7). […] Following incubation with the inhibitor, Applicant measured the acetylation level of lysine 40 of α-tubulin, a known deacetylation substrate of SIRT2.
MCF-7 (HTB-22) and HEK 293T (CRL-11268) cells purchased from American Type Culture Collection were grown in Dulbecco's Modified Eagle Medium (Invitrogen) containing 10% fetal bovine serum (Invitrogen) at 37° C. in an atmosphere of 5% CO2. Cells were seeded in a 6-well plate (Falcon 353046) at 5×10^5 viable cells/well, and grown for 24-48 hours to 60-70% confluence. […] After incubating with the inhibitors for 24 hours, the media was removed and the cells were washed twice with ice-cold PBS (Invitrogen). Cells were lysed on ice for 30 minutes in 100 μL of buffer containing 25 mM Tris pH 7.4, 150 mM NaCl, 10% glycerol, 4 mM MgCl2, 0.2 mM DTT, 1% NP-40, 25 mM nicotinamide, 5 μM trichostatin A, and 1:100 dilution of protease inhibitor cocktail (Sigma-Aldrich). The lysates were clarified by centrifugation, quantified by BCA assay (Pierce), and aliquots were stored at −80° C. Cell lysates (15 or 20 μg) were resolved by SDS-PAGE under denaturing conditions on a 12% acrylamide gel and then transferred to a 0.2 μm nitrocellulose membrane (Bio-Rad). α-tubulin acetylation (K40) and total α-tubulin were probed with primary antibody clones 6-11B-1, and B-5-1-2, respectively, which were purchased from Sigma-Aldrich (1:2,000 dilution). Primary antibodies were probed with HRP-conjugated goat anti-mouse IgG (Jackson ImmunoResearch Laboratories, Inc., 1:10,000 dilution). Chemiluminescence signals were generated with the SuperSignal™ […] Chemiluminescent substrate (ThermoFisher Scientific) and visualized with a Bio-Rad ChemiDoc XRS+ imaging system.

SIRT2 = molecular target: T1, SIRT2 (Homo sapiens, UniProt Q8IXJ6); test: Sirtuin inhibition assay with fluorogenic universal sirtuin substrate (SIRT2); type: biochemical; details: for IC50: inhibition of SIRT2, mean ± standard deviation of two independent experiments
T1 sequence (Q8IXJ6 1-389): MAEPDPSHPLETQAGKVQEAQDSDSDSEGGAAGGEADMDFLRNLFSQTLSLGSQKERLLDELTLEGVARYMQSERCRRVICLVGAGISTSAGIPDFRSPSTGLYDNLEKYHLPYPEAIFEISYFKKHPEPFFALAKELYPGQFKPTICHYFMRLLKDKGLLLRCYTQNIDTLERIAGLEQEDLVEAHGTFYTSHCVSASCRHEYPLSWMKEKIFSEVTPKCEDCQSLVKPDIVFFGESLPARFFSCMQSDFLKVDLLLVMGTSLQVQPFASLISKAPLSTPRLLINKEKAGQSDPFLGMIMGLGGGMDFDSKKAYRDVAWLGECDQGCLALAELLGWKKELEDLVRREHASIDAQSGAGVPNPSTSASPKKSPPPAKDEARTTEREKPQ
Description: For inhibition assays, the eluted protein was loaded onto a HiPrep 26/10 desalting column (GE Healthcare) that had been pre-equilibrated with Source 15Q buffer A (20 mM Tris pH 8.0, 50 mM NaCl, 0.2 mM DTT, 10% glycerol). The desalted protein was concentrated by ultrafiltration to 1 mL (10 kDa MWCO) and applied to a 10 mL Source 15Q column (GE Healthcare) pre-equilibrated with Source 15Q buffer A. The column was washed with 3 CV (2 mL·min^−1) of Source 15Q buffer A and then eluted with a linear gradient from 0-60% Source 15Q buffer B (20 mM Tris pH 8.0, 1 M NaCl, 0.2 mM DTT, 10% glycerol; 1 mL·min^−1) over 5 CV. The fractions containing pure SIRT2 were concentrated and stored at −80° C. Enzyme concentration was determined from the absorbance at 280 nm using the calculated extinction coefficient of 32,470 M^−1·cm^−1.
Inhibition assays for SIRT1-3 were performed using a recently reported fluorogenic, universal sirtuin substrate (JPT Peptide Technologies, GmbH). The inhibition reactions were performed in 50 μL volumes at 37° C. in black, half-area, 96-well plates. The sirtuin enzyme (0.25 μM) was pre-incubated with different concentrations of the synthetic peptides (0.0064-50 μM for SIRT1 and SIRT2, 0.5-100 μM for SIRT3) or TB (0.16-150 μM for SIRT1-3) and 1 mM NAD^+ in assay buffer (20 mM Tris pH 7.8, 150 mM NaCl, 5 mM MgCl2, 1 mM DTT) for 15 minutes. Following incubation, the reaction was started with the addition of the substrate (5 μM) and product formation was monitored by measuring the fluorescence intensity every 20 seconds for 5 minutes (SIRT2) or 30 minutes (SIRT1 and SIRT3) in a BioTek Synergy H1 microplate reader at λEx=320 nm, λEm=408 nm (gain=130, read height=7 mm). Initial rates of product formation were determined by linear regression of the plot of fluorescence intensity versus time and normalized relative to 0% activity (max inhibitor) and 100% activity (no inhibitor) controls. IC50 values were determined by nonlinear regression of the plot of normalized initial rate versus inhibitor concentration using GraphPad Prism.

HEK 293T cells = test: Western blot of α-tubulin K40 acetylation in HEK 293T cells (SIRT2 inhibition in cells); type: cell-based, human; details: 50 μM, 24 hours, versus vehicle control (0.25% DMF)
Description: as §1
MCF-7 (HTB-22) and HEK 293T (CRL-11268) cells purchased from American Type Culture Collection were grown in Dulbecco's Modified Eagle Medium (Invitrogen) containing 10% fetal bovine serum (Invitrogen) at 37° C. in an atmosphere of 5% CO2. Cells were seeded in a 6-well plate (Falcon 353046) at 5×10^5 viable cells/well, and grown for 24-48 hours to 60-70% confluence. […] After incubating with the inhibitors for 24 hours, the media was removed and the cells were washed twice with ice-cold PBS (Invitrogen). Cells were lysed on ice for 30 minutes in 100 μL of buffer containing 25 mM Tris pH 7.4, 150 mM NaCl, 10% glycerol, 4 mM MgCl2, 0.2 mM DTT, 1% NP-40, 25 mM nicotinamide, 5 μM trichostatin A, and 1:100 dilution of protease inhibitor cocktail (Sigma-Aldrich). The lysates were clarified by centrifugation, quantified by BCA assay (Pierce), and aliquots were stored at −80° C. […]

SIRT1 = molecular target: T2, SIRT1 (Homo sapiens, UniProt Q96EB6); test: Sirtuin inhibition assay with fluorogenic universal sirtuin substrate (SIRT1); type: biochemical; details: selectivity SIRT2 over SIRT1
T2 sequence (Q96EB6 1-747): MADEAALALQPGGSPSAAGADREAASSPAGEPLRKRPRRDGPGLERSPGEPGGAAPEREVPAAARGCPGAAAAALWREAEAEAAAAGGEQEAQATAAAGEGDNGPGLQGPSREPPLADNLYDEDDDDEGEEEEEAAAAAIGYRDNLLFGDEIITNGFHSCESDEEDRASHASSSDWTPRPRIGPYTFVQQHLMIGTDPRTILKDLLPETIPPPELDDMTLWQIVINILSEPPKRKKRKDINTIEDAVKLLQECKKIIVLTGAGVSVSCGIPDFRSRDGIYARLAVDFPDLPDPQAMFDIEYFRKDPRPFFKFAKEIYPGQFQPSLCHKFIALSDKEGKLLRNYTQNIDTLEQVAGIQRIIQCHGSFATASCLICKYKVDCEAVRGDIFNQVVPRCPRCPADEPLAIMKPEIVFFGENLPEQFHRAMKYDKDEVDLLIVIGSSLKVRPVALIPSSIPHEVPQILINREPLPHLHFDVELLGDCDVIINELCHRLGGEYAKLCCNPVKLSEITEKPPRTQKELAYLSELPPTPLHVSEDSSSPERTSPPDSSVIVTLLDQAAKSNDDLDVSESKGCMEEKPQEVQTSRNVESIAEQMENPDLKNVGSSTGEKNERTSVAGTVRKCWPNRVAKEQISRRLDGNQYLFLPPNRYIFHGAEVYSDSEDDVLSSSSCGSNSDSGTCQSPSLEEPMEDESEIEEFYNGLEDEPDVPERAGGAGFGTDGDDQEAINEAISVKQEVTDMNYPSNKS
Description: Cell pellets were resuspended in 50 mL of lysis buffer (50 mM Tris pH 8.0, 250 mM NaCl, 10 mM imidazole, 0.1 mM phenylmethanesulfonyl fluoride (PMSF), 1% Triton X-100) and incubated with 1 mg·mL^−1 lysozyme (chicken egg white) for 30 minutes on ice. Following incubation, the resuspension was sonicated twice (1 s on, 1 s off, 1 min total, 60% output) and clarified by centrifugation. […] After 30 minutes, the mixture was filtered through a disposable column and the resin was washed with 40 mL of lysis buffer containing 0.1% Triton X-100, followed by 40 mL of lysis buffer without Triton X-100. […] Enzyme concentration was determined from the absorbance at 280 nm using the calculated extinction coefficient of 40,340 M^−1·cm^−1.
Inhibition assays for SIRT1-3 were performed using a recently reported fluorogenic, universal sirtuin substrate (JPT Peptide Technologies, GmbH). […] Following incubation, the reaction was started with the addition of the substrate (5 μM) and product formation was monitored by measuring the fluorescence intensity every 20 seconds for 5 minutes (SIRT2) or 30 minutes (SIRT1 and SIRT3) in a BioTek Synergy H1 microplate reader at λEx=320 nm, λEm=408 nm (gain=130, read height=7 mm). […] IC50 values were determined by nonlinear regression of the plot of normalized initial rate versus inhibitor concentration using GraphPad Prism.

SIRT3 = molecular target: T3, SIRT3 (Homo sapiens, UniProt Q9NTG7); test: Sirtuin inhibition assay with fluorogenic universal sirtuin substrate (SIRT3); type: biochemical; details: selectivity SIRT2 over SIRT3
T3 sequence (Q9NTG7 1-399): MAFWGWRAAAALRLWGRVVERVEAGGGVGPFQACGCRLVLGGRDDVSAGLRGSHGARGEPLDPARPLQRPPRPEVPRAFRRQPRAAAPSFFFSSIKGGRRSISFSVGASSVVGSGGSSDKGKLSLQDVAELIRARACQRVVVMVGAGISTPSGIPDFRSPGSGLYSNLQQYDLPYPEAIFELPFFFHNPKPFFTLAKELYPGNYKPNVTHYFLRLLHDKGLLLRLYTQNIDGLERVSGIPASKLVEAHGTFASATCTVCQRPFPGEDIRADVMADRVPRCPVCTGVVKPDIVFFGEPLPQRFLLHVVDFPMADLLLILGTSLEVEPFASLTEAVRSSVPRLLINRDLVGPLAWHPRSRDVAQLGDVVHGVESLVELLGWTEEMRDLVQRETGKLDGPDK
Description: Cell pellets were resuspended in 50 mL of lysis buffer (50 mM Tris pH 7.4, 150 mM NaCl, 0.1 mM PMSF, 1% Triton X-100) and incubated in the presence of 1 mg·mL^−1 of lysozyme for 30 minutes on ice. Following incubation, the resuspension was sonicated twice (1 s on 1 s off, 1 min total, 60% output) and clarified by centrifugation. To the clarified supernatant was added 3 mL of a 50% slurry of immobilized glutathione resin (Genscript) and the mixture was incubated at 4° C. for 30 minutes with end-over-end rotation. After 30 minutes the mixture was filtered through a disposable column, and the resin was washed with 50 mL of lysis buffer containing 0.1% Triton X-100. […] Enzyme concentration was determined from the absorbance at 280 nm using the calculated extinction coefficient of 80,790 M^−1·cm^−1.
Inhibition assays for SIRT1-3 were performed using a recently reported fluorogenic, universal sirtuin substrate (JPT Peptide Technologies, GmbH). […] Following incubation, the reaction was started with the addition of the substrate (5 μM) and product formation was monitored by measuring the fluorescence intensity every 20 seconds for 5 minutes (SIRT2) or 30 minutes (SIRT1 and SIRT3) in a BioTek Synergy H1 microplate reader at λEx=320 nm, λEm=408 nm (gain=130, read height=7 mm). […]

Row | SMILES | increase in acetylation level compared to S2P04 in vivo (in cells) (MCF-7 cells) | IC50 (SIRT2) | α-tubulin acetylation (lysine 40) (MCF-7 cells) | α-tubulin acetylation (lysine 40) (HEK 293T cells) | further results
1 | CCCC(=S)NCCCC[C@H](NC(=O)[C@@H](NC(=O)[C@@H](NC(=O)[C@@H](N)CC)[C@@H](C)O)C(C)C)C(=O)N[C@H](C(N)=O)[C@@H](C)CC [S2P04(Abu)-5, NH2-ZTVXI-NH2] (H-[Abu]TV[X1]I-NH2) | neither led to a greater increase in acetylation level compared to S2P04 | – | – | – | –
2 | CCCC(=S)NCCCC[C@H](NC(=O)[C@@H](NC(=O)[C@@H](NC(=O)[C@@H](N)CS)[C@@H](C)O)C(C)C)C(=O)N[C@H](C(N)=O)[C@@H](C)CC [Compound S2P04-5] (H-CTV[X1]I-NH2; N-terminus and C-terminus assumed) | – | 136 ± 29 nM | – | – | –
3 | CCCC(=S)NCCCC[C@H](NC(=O)OCc1ccccc1)C(=O)Nc1ccccc1 [TB, reference compound] | – | 3110 nM | increase in α-tubulin acetylation compared to the control | No increase in α-tubulin acetylation | –
4 | CCCC(=S)NCCCC[C@H](NC(=O)[C@@H](NC(=O)[C@@H](NC(=O)[C@H](CS)NC(=O)[C@@H](N)[C@@H](C)O)[C@@H](C)O)C(C)C)C(=O)N[C@H](C(=O)NCC(N)=O)[C@@H](C)CC [Compound S2P04, NH2-TCTVXIG-NH2] (H-TCTV[X1]IG-NH2) | – | – | increase in α-tubulin acetylation | increase in α-tubulin acetylation | fold more potent than TB (SIRT2; for each enzyme (SIRT1, SIRT2, SIRT3)): at least 33 fold; fold more potent inhibition of SIRT2 than SIRT1 (SIRT1): 2.7 fold; fold more potent inhibition of SIRT2 than SIRT3 (SIRT3): 152 fold
5 | CCCC(=S)NCCCC[C@H](NC(=O)[C@@H](NC(=O)[C@@H](NC(=O)[C@H](CS)NC(C)=O)[C@@H](C)O)C(C)C)C(=O)N[C@H](C(N)=O)[C@@H](C)CC [Ac-S2P04-5, Ac-CTVXI-NH2] (Ac-CTV[X1]I-NH2) | neither led to a greater increase in acetylation level compared to S2P04 | – | – | – | –
